Patent US9284345B2 (priority 2007, dated 2016)

Tests used:
[1] = tested on: Shionogi mouse mammary carcinoma cells; assay: cells; format: cell-based; details: for Ki: read-out: Shionogi cells Antiandrogenic activity Ki
Rat Androgen Receptor = molecular target: T1, Rat Androgen Receptor (Rattus norvegicus, UniProt P15207); assay: Androgen receptor binding assay (HAP, [3H]R1881), rat prostate cytosol
T1 construct: ventral prostates collected from 24 h-gonadectomized rats were homogenized in buffer A; from tissue; host or cells: rat ventral prostate cytosol (24 h-gonadectomized rats)
T1 sequence (P15207 1-902): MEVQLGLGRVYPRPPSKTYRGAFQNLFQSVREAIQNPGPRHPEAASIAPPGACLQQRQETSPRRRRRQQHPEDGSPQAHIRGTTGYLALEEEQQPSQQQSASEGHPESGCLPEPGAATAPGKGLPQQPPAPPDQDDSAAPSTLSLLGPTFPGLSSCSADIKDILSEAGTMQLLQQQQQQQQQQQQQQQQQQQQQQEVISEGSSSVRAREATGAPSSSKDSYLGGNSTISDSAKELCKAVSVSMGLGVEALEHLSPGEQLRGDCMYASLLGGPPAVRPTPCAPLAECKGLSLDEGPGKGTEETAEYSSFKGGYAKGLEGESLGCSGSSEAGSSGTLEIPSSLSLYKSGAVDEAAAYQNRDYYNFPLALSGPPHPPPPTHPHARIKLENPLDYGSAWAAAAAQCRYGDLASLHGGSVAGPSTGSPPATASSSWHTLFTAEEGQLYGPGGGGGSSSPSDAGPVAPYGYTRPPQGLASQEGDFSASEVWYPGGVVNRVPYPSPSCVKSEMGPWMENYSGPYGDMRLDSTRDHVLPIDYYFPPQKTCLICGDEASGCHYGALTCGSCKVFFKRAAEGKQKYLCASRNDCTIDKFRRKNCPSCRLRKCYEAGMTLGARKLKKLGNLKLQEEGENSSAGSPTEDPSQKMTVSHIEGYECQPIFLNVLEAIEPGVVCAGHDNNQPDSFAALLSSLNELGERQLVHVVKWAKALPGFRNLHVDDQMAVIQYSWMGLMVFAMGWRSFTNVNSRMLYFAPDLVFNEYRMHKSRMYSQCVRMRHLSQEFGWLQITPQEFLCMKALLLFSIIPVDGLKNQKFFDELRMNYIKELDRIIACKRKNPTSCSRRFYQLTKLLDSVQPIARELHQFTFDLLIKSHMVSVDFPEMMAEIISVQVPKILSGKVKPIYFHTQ
Description: On the morning of the binding assay, ventral prostates collected from 24 h-gonadectomized rats were homogenized in buffer A (1 g of tissue in 5 mL) and the homogenate was centrifuged as described above.
Androgen binding is measured using the hydroxylapatite (HAP) assay. In brief, the radioactive steroid [^3H]R1881 solubilized in ethanol is diluted with buffer B (10 mM Tris-HCl, 1.5 mM EDTA disodium salt, 10 mM α-monothioglycerol, pH 7.4). Aliquots of the cell or prostate cytosol preparation (0.1 ml) are then incubated with 5 nM [^3H]R1881 (0.1 ml, ˜100 000 cpm) in the presence or absence of the indicated concentrations of unlabeled compounds (0.1 ml, prepared in buffer B containing 30% ethanol) for 16-18 h at 0-4° C. Triamcinolone acetonide (TAC; 100 nM) is added to mask progesterone receptors. Unbound steroids are separated by incubation for 40 min at 0-4° C. with 0.3 ml HAP prepared in buffer P (50 mM Tris-HCl, 10 mM KH2PO4, pH 7.4). After incubation with HAP and 10 min of centrifugation at 1000×g, the pellet is washed 3 times with 1 ml of buffer P. Thereafter, the radioactivity is extracted from the pellet by incubation at room temperature for 60 min with 1 ml of ethanol. After centrifugation, the supernatant is decanted into a scintillation vial and the pellet is extracted again with ethanol. After the addition of scintillation liquid, the radioactivity is measured in a liquid scintillation counter.

Human Androgen Receptor = molecular target: T2, Human Androgen Receptor (Homo sapiens, UniProt P10275); format: binding
T2 construct: expressed in transfected cells; host or cells: HEK-293 cells stably transfected with the pCMVneo-hAR plasmid (G-418 selection); cytosol used
T2 sequence (P10275 1-920): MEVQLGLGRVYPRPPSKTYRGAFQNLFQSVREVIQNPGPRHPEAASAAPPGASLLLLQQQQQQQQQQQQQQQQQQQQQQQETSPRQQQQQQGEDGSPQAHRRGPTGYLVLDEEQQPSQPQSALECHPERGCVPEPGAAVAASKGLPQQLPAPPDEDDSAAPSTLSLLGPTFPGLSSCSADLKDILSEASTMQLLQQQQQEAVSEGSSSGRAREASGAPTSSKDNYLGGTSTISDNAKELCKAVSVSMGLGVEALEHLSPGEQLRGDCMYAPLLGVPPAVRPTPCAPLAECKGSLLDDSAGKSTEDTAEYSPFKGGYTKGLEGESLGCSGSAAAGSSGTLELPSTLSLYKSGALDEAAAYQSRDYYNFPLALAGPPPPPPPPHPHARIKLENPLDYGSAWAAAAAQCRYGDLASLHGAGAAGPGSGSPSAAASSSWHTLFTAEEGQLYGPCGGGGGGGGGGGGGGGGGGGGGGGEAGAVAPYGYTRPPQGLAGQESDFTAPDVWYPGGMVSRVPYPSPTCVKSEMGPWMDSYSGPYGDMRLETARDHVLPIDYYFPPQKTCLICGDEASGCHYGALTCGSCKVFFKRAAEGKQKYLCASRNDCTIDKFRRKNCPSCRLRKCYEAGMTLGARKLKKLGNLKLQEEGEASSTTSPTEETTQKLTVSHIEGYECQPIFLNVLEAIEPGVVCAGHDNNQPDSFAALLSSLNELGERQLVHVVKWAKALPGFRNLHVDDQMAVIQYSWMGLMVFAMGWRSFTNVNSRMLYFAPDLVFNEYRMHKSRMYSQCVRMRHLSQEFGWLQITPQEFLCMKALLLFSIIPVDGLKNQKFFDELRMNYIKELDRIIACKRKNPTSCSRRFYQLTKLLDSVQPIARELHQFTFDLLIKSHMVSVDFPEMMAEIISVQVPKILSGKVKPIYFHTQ

[2] = in vivo, po
in vivo = details: male, Sprague-Dawley, rat, po
Immature Rat CX + DHT = assay: animal or person; format: in vivo; details: rat, in vivo, po
Intact Rat = assay: In vivo activity in intact rat (organ and muscle weight)

SMILES	Shionogi cells Antiandrogenic activity Ki OH-Flu/Ki compound [1]	Ki [1]	Rat Androgen Receptor Binding RBA (%) R1881 = 100% (Rat Androgen Receptor)	Human Androgen Receptor Binding RBA (%) R1881 = 100% (Human Androgen Receptor)	Prostate Conc, 7 h (Rat) [2]	AUC (in vivo; in vivo, 0.5 mg)	% of stim of basal at 10^−7M (% over basal) [1]	% of stim of basal at 10^−7 M (DHT = 100%) [1]	inhibition at 0.0003 µM ([1]; Mus musculus, read-out: % of inh of DHT at 10^−7 M (Basal = 100%))	In Vivo Agonist Rat CX % change vs CX (DHT CONT = +100%) Bulbo (Immature Rat CX)	In Vivo Agonist Rat CX % change vs CX (DHT CONT = +100%) SV (Immature Rat CX)	In Vivo Agonist Rat CX % change vs CX (DHT CONT = +100%) VP (Immature Rat CX)	In Vivo Anti-A Rat CX + DHT % change vs DHT (CX CONT = −100%) Bulbo (Immature Rat CX + DHT)	In Vivo Anti-A Rat CX + DHT % change vs DHT (CX CONT = −100%) SV (Immature Rat CX + DHT)	In Vivo Anti-A Rat CX + DHT % change vs DHT (CX CONT = −100%) VP (Immature Rat CX + DHT)	In Vivo Intact Rat % change vs Intact CONT (Intact CONT = +100%; CX CONT = 0%) Bulbo (Intact Rat; 0.1 mg/rat/os/ID, bulbocavernosus muscles weight)	In Vivo Intact Rat % change vs Intact CONT (Intact CONT = +100%; CX CONT = 0%) VP (Intact Rat; 0.1 mg/rat/os/ID, prostate weight)	In Vivo Intact Rat % change vs Intact CONT (Intact CONT = +100%; CX CONT = 0%) SZ (Intact Rat; rat, in vivo)	AUC(0-t) (in vivo; plasma, 0.5 mg/animal)
CC12CCC3c4ccc(C#N)c(Cl)c4CCC3C1CCCC2(O)Cc1cc[n+]([O-])cc1 (stereo not drawn) [EM-5945]	13	0.9 nM	0.3%	2.8 ± 0.4%	1539 ng/g	–	–	–	–	–	–	–	–	–	–	–	–	–	–
CC(C)(O)C(=O)Nc1ccc([N+](=O)[O-])c(C(F)(F)F)c1 [Hydroxyflutamide, reference compound]	1	16.8 ± 0.5 nM	0.1%	0.21 ± 0.09%	–	5380 ± 820 ng·h/mL	–	–	–	–	–	–	–	–	–	–	–	–	–
C[C@@]1(Cc2ccc(C#N)cc2)CC2C3CCc4c(C#N)cccc4C3CC[C@]2(C)[C@H]1O (stereo partly drawn) [EM-3585]	–	–	–	55%	–	–	+279%	+63%	41%	+74 ± 18%	+13 ± 4%	+20 ± 4%	[+67 ± 21] %	[−2 ± 15] %	[−26 ± 7] %	+263 ± 64%	+82 ± 17%	+114 ± 23%	2370 ± 253 ng·h/mL
